Reference: ChEMBL document CHEMBL3886771, “Cyclopropanecarboxamido-substitute aromatic compounds as anti-tumor agents” (2016)

Target: Vascular endothelial growth factor receptor 2 (Homo sapiens, UniProt P35968)
Assay: Inhibition Assay: [Experimental method]: Use Lance@Ultra Ulight™-TK assay kit from PerKinElmer to evaluate the inhibitory activity of compounds at KDR kinase. [Instrument]: PerKinElmer's ENVISION plate reader. [Materials]: Optiplate-384 well plate (PerKinElmer), kinase buffer (50 mM Hepes pH7.5, 0.25 mM EGTA, 2 mM DTT, 0.01% Tween 20, 10 mM Mg2+, 0.5 mM Mn2+), KDR kinase (790-1356 AA, Crown Bioscience), KDR kinase substrate (PerKinElmer catalogue # TRF0127-M), Lance@Eu-W1024-anti-phosphotyrosine (PT66) (PerKinElmer, catalogue #AD0068), ATP (Invitrogen), DMSO (Sigma, catalogue #34869), purified water (Millipore, type: Milli-Q). [Study conditions]: Mix KDR (final concentration: 20 nM) and compound (final DMSO: 0.5%), pre-incubate for 20 min at 30° C.; then add ATP (final concentration: 90 μM) and the substrate (final concentration 50 μM). React for 2 hrs at 30° C. After the reaction, add antibody and reaction for 60 min at 30° C. Read the plate (615 nm, 665 nm), calculate the ratio of the value at 665 nm vs 615 nm and analyze the data.

Sequence of Vascular endothelial growth factor receptor 2 (P35968 whole entry, the tested form may be a part): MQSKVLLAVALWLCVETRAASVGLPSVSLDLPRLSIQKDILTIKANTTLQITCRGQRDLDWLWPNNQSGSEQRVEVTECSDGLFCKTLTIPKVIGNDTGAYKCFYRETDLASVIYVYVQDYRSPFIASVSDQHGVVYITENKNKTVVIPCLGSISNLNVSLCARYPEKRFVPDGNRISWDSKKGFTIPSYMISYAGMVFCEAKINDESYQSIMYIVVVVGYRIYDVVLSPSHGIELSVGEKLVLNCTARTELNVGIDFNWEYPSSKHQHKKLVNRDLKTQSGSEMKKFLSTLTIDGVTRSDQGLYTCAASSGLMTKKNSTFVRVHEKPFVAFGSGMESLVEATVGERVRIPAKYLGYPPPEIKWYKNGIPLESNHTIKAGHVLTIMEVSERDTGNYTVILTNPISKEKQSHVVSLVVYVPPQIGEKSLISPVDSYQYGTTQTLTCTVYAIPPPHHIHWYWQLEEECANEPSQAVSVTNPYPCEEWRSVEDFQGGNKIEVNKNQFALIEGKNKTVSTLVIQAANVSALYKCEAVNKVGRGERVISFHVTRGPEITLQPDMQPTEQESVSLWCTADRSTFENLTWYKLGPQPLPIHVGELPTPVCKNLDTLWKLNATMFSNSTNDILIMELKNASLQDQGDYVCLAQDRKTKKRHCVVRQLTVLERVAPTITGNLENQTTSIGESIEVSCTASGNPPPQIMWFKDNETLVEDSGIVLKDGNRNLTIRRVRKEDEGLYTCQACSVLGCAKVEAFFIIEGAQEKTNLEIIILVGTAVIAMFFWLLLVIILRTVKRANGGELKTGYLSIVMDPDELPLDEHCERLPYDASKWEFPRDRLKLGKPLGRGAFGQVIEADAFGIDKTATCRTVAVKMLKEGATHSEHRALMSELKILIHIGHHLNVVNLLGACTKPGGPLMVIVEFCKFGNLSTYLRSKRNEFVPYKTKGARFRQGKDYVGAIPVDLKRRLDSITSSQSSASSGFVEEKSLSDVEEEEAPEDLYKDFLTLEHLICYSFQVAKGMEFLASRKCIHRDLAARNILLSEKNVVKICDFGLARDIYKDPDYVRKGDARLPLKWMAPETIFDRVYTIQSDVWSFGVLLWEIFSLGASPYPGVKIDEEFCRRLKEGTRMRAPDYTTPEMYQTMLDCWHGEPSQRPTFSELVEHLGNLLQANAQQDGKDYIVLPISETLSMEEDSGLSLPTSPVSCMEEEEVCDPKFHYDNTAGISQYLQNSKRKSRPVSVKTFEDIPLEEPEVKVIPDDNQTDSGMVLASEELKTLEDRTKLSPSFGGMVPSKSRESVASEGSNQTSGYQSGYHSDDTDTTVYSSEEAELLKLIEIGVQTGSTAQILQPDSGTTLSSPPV

IC50 [nM] | SMILES
26.6 | CC(c1cc(NC(=O)Nc2ccc(Oc3ccnc(NC(=O)C4CC4)c3)c(F)c2)cc(C(F)(F)F)c1)N1CCNCC1 (configuration not stated)
11.5 | O=C(Nc1ccc(Oc2ccnc(NC(=O)C3CC3)c2)c(F)c1)Nc1ccc(Cl)c(C(F)(F)F)c1
